Patent US20210045385A1, “PYRIDAZINONE-SUBSTITUTED KETOXIMES AS HERBICIDES” (FMC Corporation, priority 2018, published 2021)

Tests used:
Type in all cases: in vivo
[1] = system: Italian ryegrass (Lolium multiflorum); test: Test A preemergence, visual plant response rating; conditions: for Ryegrass, Italian plant response rating (0 to 100 scale): approx. 10 days
Procedure, shortened: (§1)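 Compared with untreated controls, treated plants received a visual injury score on a 0–100 scale around 10 days after application. The compound, in a non-phytotoxic solvent with surfactant, was given as a preemergence soil spray or postemergence at the one- to two-leaf stage.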

[2] = system: barnyardgrass (Echinochloa crus-galli); test: Test A preemergence, visual plant response rating; conditions: for Barnyardgrass plant response rating (0 to 100 scale): approx. 10 days
Procedure, shortened: as §1

[3] = system: foxtail, green (green foxtail, Setaria viridis); test: Test A preemergence, visual plant response rating; conditions: for Foxtail, Green plant response rating (0 to 100 scale): approx. 10 days
Procedure, shortened: as §1

kochia (Kochia scoparia) [4] = test: Test A preemergence, visual plant response rating; conditions: for Kochia plant response rating (0 to 100 scale): approx. 10 days
Procedure, shortened: as §1

[5] = system: pigweed (Amaranthus retroflexus); test: Test A preemergence, visual plant response rating; conditions: for Pigweed plant response rating (0 to 100 scale): approx. 10 days
Procedure, shortened: as §1

[6] = system: ragweed (common ragweed, Ambrosia elatior); test: Test A preemergence, visual plant response rating; conditions: for Ragweed plant response rating (0 to 100 scale): approx. 10 days
Procedure, shortened: as §1

[7] = system: Italian ryegrass (Lolium multiflorum); test: Test A postemergence, visual plant response rating; conditions: for Ryegrass, Italian plant response rating: 125 g ai/ha, 0 to 100 scale (0 no effect, 100 complete control)
Procedure, shortened: as §1

[8] = system: barnyardgrass (Echinochloa crus-galli); test: Test A postemergence, visual plant response rating; conditions: for Barnyardgrass plant response rating (0 to 100 scale): 500 g ai/ha, postemergence, 0 is no effect, 100 is complete control; for Barnyardgrass plant response rating: Postemergence, 125 g ai/ha, 0 to 100 scale (0 no effect, 100 complete control)
Procedure, shortened: as §1

[9] = system: blackgrass (Alopecurus myosuroides); test: Test A postemergence, visual plant response rating; conditions: for Blackgrass plant response rating (0 to 100 scale): 500 g ai/ha, postemergence, 0 is no effect, 100 is complete control; for Blackgrass plant response rating: Postemergence, 125 g ai/ha, 0 to 100 scale (0 no effect, 100 complete control)
Procedure, shortened: as §1

corn (Zea mays) = test: Test A postemergence, visual plant response rating; conditions: for Corn plant response rating (0 to 100 scale): 500 g ai/ha, postemergence, 0 is no effect, 100 is complete control; for Corn plant response rating: Postemergence, 125 g ai/ha, 0 to 100 scale (0 no effect, 100 complete control)
Procedure, shortened: as §1

[10] = system: foxtail, green (green foxtail, Setaria viridis); test: Test A postemergence, visual plant response rating; conditions: for Foxtail, Green plant response rating (0 to 100 scale): 500 g ai/ha, postemergence, 0 is no effect, 100 is complete control; for Foxtail, Green plant response rating: Postemergence, 125 g ai/ha, 0 to 100 scale (0 no effect, 100 complete control)
Procedure, shortened: as §1

[11] = system: galium (catchweed bedstraw, Galium aparine); test: Test A postemergence, visual plant response rating; conditions: for Galium plant response rating (0 to 100 scale): 500 g ai/ha, postemergence, 0 is no effect, 100 is complete control; for Galium plant response rating: Postemergence, 125 g ai/ha, 0 to 100 scale (0 no effect, 100 complete control)
Procedure, shortened: as §1

kochia (Kochia scoparia) [12] = test: Test A postemergence, visual plant response rating; conditions: for Kochia plant response rating (0 to 100 scale): 500 g ai/ha, postemergence, 0 is no effect, 100 is complete control; for Kochia plant response rating: Postemergence, 125 g ai/ha, 0 to 100 scale (0 no effect, 100 complete control)
Procedure, shortened: as §1

[13] = system: pigweed (Amaranthus retroflexus); test: Test A postemergence, visual plant response rating; conditions: for Pigweed plant response rating (0 to 100 scale): 500 g ai/ha, postemergence, 0 is no effect, 100 is complete control; for Pigweed plant response rating: Postemergence, 125 g ai/ha, 0 to 100 scale (0 no effect, 100 complete control)
Procedure, shortened: as §1

[14] = system: ragweed (common ragweed, Ambrosia elatior); test: Test A postemergence, visual plant response rating; conditions: for Ragweed plant response rating (0 to 100 scale): 500 g ai/ha, postemergence, 0 is no effect, 100 is complete control; for Ragweed plant response rating: Postemergence, 125 g ai/ha, 0 to 100 scale (0 no effect, 100 complete control)
Procedure, shortened: as §1

[15] = system: wheat (Triticum aestivum); test: Test A postemergence, visual plant response rating; conditions: for Wheat plant response rating: 0 to 100 scale (0 no effect, 100 complete control)
Procedure, shortened: as §1

[16] = system: barnyardgrass (Echinochloa crus-galli); test: Test B flooded paddy test, visual plant response rating; conditions: 250 g ai/ha, Flood, applied to paddy water, 2-leaf stage, evaluated after 13 to 15 days
Procedure, shortened: (§2)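 Test pots are flooded 3 cm above the soil at treatment, and the test substance is introduced into this standing water. After keeping the flood level and growing plants, treated at the 2-leaf stage, for 13 to 15 days under glass, injury is assessed visually versus controls.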

[17] = system: ducksalad (Heteranhera limosa); test: as above; conditions: 250 g ai/ha, Flood, applied to paddy water, 2-leaf stage, evaluated after 13 to 15 days
Procedure, shortened: as §2

rice (Oryza sativa) = test: as above; conditions: 250 g ai/ha, Flood, applied to paddy water, 2-leaf stage, evaluated after 13 to 15 days
Procedure, shortened: as §2

[18] = system: sedge, umbrella (small-flower umbrella sedge, Cyperus difformis); test: as above; conditions: 250 g ai/ha, Flood, applied to paddy water, 2-leaf stage, evaluated after 13 to 15 days
Procedure, shortened: as §2

[19] = 125 g ai/ha, preemergence, 0 to 100 scale, 0 no effect, 100 complete control
[20] = 500 g ai/ha, postemergence, 0 is no effect, 100 is complete control

Structure (SMILES)	Ryegrass, Italian plant response rating (0 to 100 scale) ([1]; 500 g ai/ha Preemergence)	Barnyardgrass plant response rating (0 to 100 scale) ([2]; 500 g ai/ha Preemergence)	Foxtail, Green plant response rating (0 to 100 scale) ([3]; 500 g ai/ha Preemergence)	Kochia plant response rating (0 to 100 scale) (kochia (Kochia scoparia) [4]; 500 g ai/ha Preemergence)	Pigweed plant response rating (0 to 100 scale) ([5]; 500 g ai/ha Preemergence)	Ragweed plant response rating (0 to 100 scale) ([6]; 500 g ai/ha Preemergence)	Ryegrass, Italian plant response rating (0 to 100 scale) [7, 20]	Barnyardgrass plant response rating (0 to 100 scale) [8]	Barnyardgrass plant response rating [8]	Blackgrass plant response rating (0 to 100 scale) [9]	Blackgrass plant response rating [9]	Corn plant response rating (0 to 100 scale) (corn (Zea mays))	Corn plant response rating (corn (Zea mays))	Foxtail, Green plant response rating (0 to 100 scale) [10]	Foxtail, Green plant response rating [10]	Galium plant response rating (0 to 100 scale) [11]	Galium plant response rating [11]	Kochia plant response rating (0 to 100 scale) (kochia (Kochia scoparia) [12])	Kochia plant response rating (kochia (Kochia scoparia) [12])	Pigweed plant response rating (0 to 100 scale) [13]	further results
CO/N=C(\c1cccc(S(C)(=O)=O)c1)c1c(O)c(C)nn(C)c1=O [Compound 148]	0	0	0	0	0	0	0	0	0	0	0	0	0	0	0	0	0	0	0	0	Ryegrass, Italian plant response rating [1, 19]: 0; Barnyardgrass plant response rating [2, 19]: 0; Foxtail, Green plant response rating [3, 19]: 0; Kochia plant response rating (kochia (Kochia scoparia) [4]; [19]): 0; Pigweed plant response rating [5, 19]: 0; Ragweed plant response rating [6, 19]: 0; Ryegrass, Italian plant response rating (0 to 100 scale) ([7]; Postemergence, rate not given, approx. 10 days): 0; Pigweed plant response rating [13]: 0; Ragweed plant response rating (0 to 100 scale) [14]: 0; Ragweed plant response rating [14]: 0; Wheat plant response rating ([15]; Postemergence, 500 g ai/ha): 0; Wheat plant response rating (0 to 100 scale) ([15]; Postemergence, approx. 10 days): 0; Plant response rating, Barnyardgrass (0 to 100 scale, 0 is no effect, 100 is complete control) [16]: 0; Plant response rating, Ducksalad (0 to 100 scale, 0 is no effect, 100 is complete control) [17]: 0; Plant response rating, Rice (0 to 100 scale, 0 is no effect, 100 is complete control) (rice (Oryza sativa)): 0; Plant response rating, Sedge, Umbrella (0 to 100 scale, 0 is no effect, 100 is complete control) [18]: 0
CO/N=C(\c1cccc(C)c1)c1c(O)c(C)nn(C)c1=O [Compound 13]	100	80	20	30	80	100	90	50	10	50	10	10	0	60	10	100	90	60	20	90	Ryegrass, Italian plant response rating (0 to 100 scale) ([1]; 125 g ai/ha Preemergence): 50; Barnyardgrass plant response rating (0 to 100 scale) ([2]; 125 g ai/ha Preemergence): 0; Foxtail, Green plant response rating (0 to 100 scale) ([3]; 125 g ai/ha Preemergence): 0; Kochia plant response rating (0 to 100 scale) (kochia (Kochia scoparia) [4]; 125 g ai/ha Preemergence): 30; Pigweed plant response rating (0 to 100 scale) ([5]; 125 g ai/ha Preemergence): 90; Ragweed plant response rating (0 to 100 scale) ([6]; 125 g ai/ha Preemergence): 30; Ryegrass, Italian plant response rating ([7]; Postemergence): 80; Pigweed plant response rating [13]: 40; Ragweed plant response rating (0 to 100 scale) [14]: 70; Ragweed plant response rating [14]: 70; Wheat plant response rating (0 to 100 scale) [15, 20]: 0; Wheat plant response rating ([15]; Postemergence, 125 g ai/ha): 0; Plant response rating, Barnyardgrass (0 to 100 scale, 0 is no effect, 100 is complete control) [16]: 0; Plant response rating, Ducksalad (0 to 100 scale, 0 is no effect, 100 is complete control) [17]: 0; Plant response rating, Rice (0 to 100 scale, 0 is no effect, 100 is complete control) (rice (Oryza sativa)): 0; Plant response rating, Sedge, Umbrella (0 to 100 scale, 0 is no effect, 100 is complete control) [18]: 0
CO/N=C(/c1cccc(C)c1)c1c(O)c(C2CC2)nn(C)c1=O [Compound 28]	0	0	30	0	10	10	10	30	0	40	0	0	0	10	0	60	20	0	0	40	Ryegrass, Italian plant response rating (0 to 100 scale) ([1]; 125 g ai/ha Preemergence): 0; Barnyardgrass plant response rating (0 to 100 scale) ([2]; 125 g ai/ha Preemergence): 0; Foxtail, Green plant response rating (0 to 100 scale) ([3]; 125 g ai/ha Preemergence): 0; Kochia plant response rating (0 to 100 scale) (kochia (Kochia scoparia) [4]; 125 g ai/ha Preemergence): 0; Pigweed plant response rating (0 to 100 scale) ([5]; 125 g ai/ha Preemergence): 0; Ragweed plant response rating (0 to 100 scale) ([6]; 125 g ai/ha Preemergence): 0; Ryegrass, Italian plant response rating ([7]; Postemergence): 0; Pigweed plant response rating [13]: 30; Ragweed plant response rating (0 to 100 scale) [14]: 40; Ragweed plant response rating [14]: 0; Wheat plant response rating (0 to 100 scale) [15, 20]: 0; Wheat plant response rating ([15]; Postemergence, 125 g ai/ha): 0; Plant response rating, Barnyardgrass (0 to 100 scale, 0 is no effect, 100 is complete control) [16]: 0; Plant response rating, Ducksalad (0 to 100 scale, 0 is no effect, 100 is complete control) [17]: 0; Plant response rating, Rice (0 to 100 scale, 0 is no effect, 100 is complete control) (rice (Oryza sativa)): 0; Plant response rating, Sedge, Umbrella (0 to 100 scale, 0 is no effect, 100 is complete control) [18]: 0
CCn1nc(C)c(O)c(C(=NOC)c2cccc(Cl)c2)c1=O (mixture of isomers) [Compound 2]	60	50	50	0	0	0	80	30	0	20	0	0	0	20	0	30	10	20	10	10	Ryegrass, Italian plant response rating (0 to 100 scale) ([1]; 125 g ai/ha Preemergence): 20; Barnyardgrass plant response rating (0 to 100 scale) ([2]; 125 g ai/ha Preemergence): 0; Foxtail, Green plant response rating (0 to 100 scale) ([3]; 125 g ai/ha Preemergence): 0; Kochia plant response rating (0 to 100 scale) (kochia (Kochia scoparia) [4]; 125 g ai/ha Preemergence): 0; Pigweed plant response rating (0 to 100 scale) ([5]; 125 g ai/ha Preemergence): 0; Ragweed plant response rating (0 to 100 scale) ([6]; 125 g ai/ha Preemergence): 0; Ryegrass, Italian plant response rating ([7]; Postemergence): 20; Pigweed plant response rating [13]: 0; Ragweed plant response rating (0 to 100 scale) [14]: 20; Ragweed plant response rating [14]: 10; Wheat plant response rating (0 to 100 scale) [15, 20]: 10; Wheat plant response rating ([15]; Postemergence, 125 g ai/ha): 10; Plant response rating, Barnyardgrass (0 to 100 scale, 0 is no effect, 100 is complete control) [16]: 0; Plant response rating, Ducksalad (0 to 100 scale, 0 is no effect, 100 is complete control) [17]: 0; Plant response rating, Rice (0 to 100 scale, 0 is no effect, 100 is complete control) (rice (Oryza sativa)): 0; Plant response rating, Sedge, Umbrella (0 to 100 scale, 0 is no effect, 100 is complete control) [18]: 0
